13 molecules from US10336702B2, “Pharmaceutically active compounds” (BERGENBIO ASA, priority 2015, dated 2019) can be followed below.

For experiment [1], the target named is T1, p-Akt1 in LNCaP cells (Homo sapiens, UniProt P31749).
T1 construct: SureFire assays to detect cellular p-Akt1, p-Akt2 and p-Akt3 levels in WM115 cells (Akt2/3) and LNCaP cells (Akt1); endogenous in cells; host or cells: LNCaP (ECACC 89110211)
Description: Phospho-Akt cellular SureFire assay, p-Akt1 in LNCaP cells. The experiment is classed as cell-based. Particulars: read-out: Biological Assay 2 IC50 (nM) Akt1 LNCaP. Summed up:
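Phospho-Thr308 Akt1 detected by AlphaScreen SureFire proximity beads in LNCaP lysates after 15 min compound treatment at 37 °C in 0.1% FBS medium, unstimulated, 0.3% DMSO. Cells plated at 5×10^4/well overnight; IC50 from a 4-parameter equation.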

Experiment [2] deals with T2, p-Akt2 in WM115 cells (Homo sapiens, UniProt P31751).
T2 construct: SureFire assays to detect cellular p-Akt1, p-Akt2 and p-Akt3 levels in WM115 cells (Akt2/3) and LNCaP cells (Akt1); endogenous in cells; host or cells: WM115 (ECACC 91061232), insulin-stimulated
In words: Phospho-Akt cellular SureFire assay, p-Akt2 in WM115 cells. The experiment is classed as cell-based. The conditions noted are these: insulin stimulated, read-out: Biological Assay 2 IC50 (nM) Akt2 WM115. Summed up:
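Readout is a bead-proximity SureFire assay pairing a pThr308 Akt antibody with a total Akt2 antibody, lysate and beads incubated 2 h plus 2 h at room temperature in the dark. Before lysis, serum-starved WM115 cells received 100 nM insulin (10 min), then test compound (15 min, 0.3% DMSO); IC50 by 4-parameter equation.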

Experiment [3] addresses T3, p-Akt3 in WM115 cells (Homo sapiens, UniProt Q9Y243).
T3 construct: SureFire assays to detect cellular p-Akt1, p-Akt2 and p-Akt3 levels in WM115 cells (Akt2/3) and LNCaP cells (Akt1); endogenous in cells; host or cells: WM115 (ECACC 91061232), insulin-stimulated
Description: Phospho-Akt cellular SureFire assay, p-Akt3 in WM115 cells. The class given is cell-based. The conditions noted are these: insulin stimulated, read-out: Biological Assay 2 IC50 (nM) Akt3 WM115. Summed up: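 pThr308-Akt3 in lysates was quantified by bead-proximity SureFire detection, pairing a phospho-specific antibody with a total Akt3 antibody. Before lysis, WM115 cells in 0.1% FBS medium were treated for 15 min at 37 °C with compound (final DMSO 0.3%), following a 10 min stimulation with 100 nM insulin. IC50 was obtained by 4-parameter fitting.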

For experiment [4], the target named is T4, Akt1 (Homo sapiens, UniProt P31749).
T4 construct: unspecified tag, removed (detagged) (cleaved yes); purchased SignalChem and Proteros (Akt1); Merck Millipore (PDK1) 14-452 (PDK1); none given for Akt1
In words: Akt activation assay (PDK1-mediated activation, LANCE Ultra crosstide TR-FRET), Akt1. The conditions noted are these: read-out: Biological Assay 1 IC50 (nM) Akt1. The experiment is classed as biochemical. Summed up: (§1)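 This TR-FRET readout (Eu-anti-phospho-crosstide antibody, 665/615 nm) measured PDK1-driven activation of Akt. Compound was first preincubated with each Akt isoform: Akt1 5 nM; Akt2 15 nM SignalChem or 5 nM Proteros; Akt3 3 nM SignalChem or 5 nM Proteros. Reactions then ran 30 min with 5 nM PDK1, lipid vesicles containing 0.55 µM PtdIns(3,4,5)P3, 100 µM ATP and 100 nM crosstide at pH 7.5, and IC50 came from a 4-parameter equation.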
In general terms: TR-FRET usually uses a lanthanide donor and a delayed reading to cut background.

Experiment [5] has as its target T5, Akt3 (Homo sapiens, UniProt Q9Y243).
T5 construct: unspecified tag, removed (detagged) (cleaved yes); purchased SignalChem and Proteros (Akt3); Merck Millipore (PDK1) 14-452 (PDK1); none given for Akt3
Description: Akt activation assay (PDK1-mediated activation, LANCE Ultra crosstide TR-FRET), Akt3. The class given is biochemical. Particulars: read-out: Biological Assay 1 IC50 (nM) Akt3. Summed up: as §1

For experiment [6], the target named is T6, Akt2 (Homo sapiens, UniProt P31751).
T6 construct: unspecified tag, removed (detagged) (cleaved yes); purchased SignalChem and Proteros (Akt2); Merck Millipore (PDK1) 14-452 (PDK1); none given for Akt2
Description: Akt activation assay (PDK1-mediated activation, LANCE Ultra crosstide TR-FRET), Akt2. Particulars: read-out: Biological Assay 1 IC50 (nM) Akt2. The class given is biochemical. Summed up: as §1

T6 sequence (P31751 whole entry): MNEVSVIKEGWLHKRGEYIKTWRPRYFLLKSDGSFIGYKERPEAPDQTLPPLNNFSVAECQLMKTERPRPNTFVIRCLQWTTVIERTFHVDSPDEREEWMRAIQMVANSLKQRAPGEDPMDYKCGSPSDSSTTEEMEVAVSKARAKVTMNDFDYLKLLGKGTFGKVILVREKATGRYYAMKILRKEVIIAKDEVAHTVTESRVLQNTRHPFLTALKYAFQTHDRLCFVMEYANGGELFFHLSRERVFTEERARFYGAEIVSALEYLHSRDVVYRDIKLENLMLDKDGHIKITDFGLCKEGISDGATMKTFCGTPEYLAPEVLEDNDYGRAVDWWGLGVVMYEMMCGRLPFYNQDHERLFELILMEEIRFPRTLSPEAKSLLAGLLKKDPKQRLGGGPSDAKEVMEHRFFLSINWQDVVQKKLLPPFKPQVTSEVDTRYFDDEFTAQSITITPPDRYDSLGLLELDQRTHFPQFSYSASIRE
T2 sequence (P31751 whole entry): as above
T5 sequence (Q9Y243 whole entry): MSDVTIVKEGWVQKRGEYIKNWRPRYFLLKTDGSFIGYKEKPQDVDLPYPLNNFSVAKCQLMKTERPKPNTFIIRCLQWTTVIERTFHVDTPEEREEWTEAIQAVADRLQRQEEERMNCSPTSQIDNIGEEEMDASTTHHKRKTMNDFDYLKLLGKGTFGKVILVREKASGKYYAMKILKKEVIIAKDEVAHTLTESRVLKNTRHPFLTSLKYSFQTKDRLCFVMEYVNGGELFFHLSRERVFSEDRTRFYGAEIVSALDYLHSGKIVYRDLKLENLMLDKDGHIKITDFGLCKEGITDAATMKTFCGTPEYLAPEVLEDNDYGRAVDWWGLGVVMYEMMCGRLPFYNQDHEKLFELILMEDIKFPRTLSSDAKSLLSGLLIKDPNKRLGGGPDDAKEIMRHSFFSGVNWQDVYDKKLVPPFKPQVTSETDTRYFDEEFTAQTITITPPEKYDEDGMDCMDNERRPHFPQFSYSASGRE
T3 sequence (Q9Y243 whole entry): as above
T1 sequence (P31749 whole entry): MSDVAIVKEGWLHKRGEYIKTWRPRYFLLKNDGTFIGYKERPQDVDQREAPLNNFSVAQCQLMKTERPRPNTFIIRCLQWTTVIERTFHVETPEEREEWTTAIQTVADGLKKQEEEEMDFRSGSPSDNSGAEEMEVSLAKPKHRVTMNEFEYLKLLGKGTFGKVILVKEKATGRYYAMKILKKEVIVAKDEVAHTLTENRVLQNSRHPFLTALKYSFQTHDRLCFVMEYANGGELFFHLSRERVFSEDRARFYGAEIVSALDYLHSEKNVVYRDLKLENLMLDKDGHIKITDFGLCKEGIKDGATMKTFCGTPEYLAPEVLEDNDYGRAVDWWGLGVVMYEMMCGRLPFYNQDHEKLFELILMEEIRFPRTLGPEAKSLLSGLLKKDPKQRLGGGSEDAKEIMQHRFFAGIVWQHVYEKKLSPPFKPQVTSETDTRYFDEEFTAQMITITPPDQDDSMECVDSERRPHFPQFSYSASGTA
T4 sequence (P31749 whole entry): as above

On to `COC(=O)N(C)[C@H]1CC[C@H](CC(=O)Nc2cnc(-c3ccc([C@]4(N)C[C@](C)(O)C4)cc3)c(-c3ccccc3)c2)CC1` [Example 44, Methyl (trans-4-(2-((6-(4-(trans-1-amino-3-hydroxy-3-methylcyclobutyl)phenyl)-5-phenylpyridin-3-yl)amino)-2-oxoethyl)cyclohexyl)(methyl)carbamate], for which the half-maximal inhibitory concentration (IC50) (as a rule, the concentration needed to halve the response being measured) in experiment [1] is 1100 nM; in experiment [2], 350 nM; in experiment [3] it was 6 nM; in experiment [4], 1200 nM; in experiment [5] it was 22 nM; in experiment [6] it was 110 nM.
Take `N[C@]1(c2ccc(-c3nnc(NC(=O)C[C@H]4CC[C@H](N5CCOC5=O)CC4)cc3-c3ccccc3)cc2)C[C@@H](F)C1` [Example 45, N-(6-(4-(trans-1-amino-3-fluorocyclobutyl)phenyl)-5-phenylpyridazin-3-yl)-2-(trans-4-(2-oxooxazolidin-3-yl)cyclohexyl)acetamide]: the IC50 in experiment [1] was > 30000 nM; in experiment [2], > 3600 nM; in experiment [3], 38 nM; in experiment [4], > 17000 nM; in experiment [5], 67 nM; in experiment [6], 380 nM.
In the case of `CN(C(=O)C1CCC1)[C@H]1CC[C@H](CC(=O)Nc2cnc(-c3ccc(C(C)(C)N)cc3)c(-c3ccccc3)c2)CC1` [Example 47, N-(trans-4-(2-((6-(4-(2-aminopropan-2-yl)phenyl)-5-phenylpyridin-3-yl)amino)-2-oxoethyl)cyclohexyl)-N-methylcyclobutanecarboxamide], the 50% inhibitory concentration (IC50) is > 30000 nM in experiment [1]; 5300 nM in experiment [2]; 240 nM in experiment [3]; > 30000 nM in experiment [4]; 75 nM in experiment [5]; 6100 nM in experiment [6].
As for `NC1(c2ccc(-c3ncc(NC(=O)[C@@H](F)C4CCN(S(=O)(=O)C5CC5)CC4)cc3-c3ccccc3)cc2)CCC1` [Example 50, (S)—N-(6-(4-(1-aminocyclobutyl)phenyl)-5-phenylpyridin-3-yl)-2-(1-(cyclopropylsulfonyl)piperidin-4-yl)-2-fluoroacetamide], the IC50 is > 30000 nM in experiment [1]; 6800 nM in experiment [2]; 580 nM in experiment [3]; 5800 nM in experiment [4]; 370 nM in experiment [5]; 670 nM in experiment [6].
For the molecule `COC(=O)N(C(C)C)[C@H]1CC[C@H](CC(=O)Nc2cnc(-c3ccc(C4(N)CCC4)cc3)c(-c3ccccc3)c2)CC1` [Example 51, Methyl (trans-4-(2-((6-(4-(1-aminocyclobutyl)phenyl)-5-phenylpyridin-3-yl)amino)-2-oxoethyl)cyclohexyl)(isopropyl)carbamate], the IC50 in experiment [1] was > 30000 nM; in experiment [2], 9100 nM; in experiment [3], 670 nM; in experiment [4], 8900 nM; in experiment [5] it was 190 nM; in experiment [6] it was 1500 nM.
On to `CN(C(=O)C1CC1)[C@H]1CC[C@H](CC(=O)Nc2cnc(-c3ccc(C(C)(C)N)c(F)c3)c(-c3ccccc3)c2)CC1` [Example 53, N-(trans-4-(2-((6-(4-(2-aminopropan-2-yl)-3-fluorophenyl)-5-phenylpyridin-3-yl)amino)-2-oxoethyl)cyclohexyl)-N-methylcyclopropanecarboxamide], for which the 50% inhibitory concentration (IC50) in experiment [1] is > 30000 nM; in experiment [2] it was 18000 nM; in experiment [3] it was 680 nM; in experiment [4] it was > 30000 nM; in experiment [5], 4100 nM; in experiment [6], > 30000 nM.
Consider `CN(C)C(=O)[C@H]1CC[C@H](CC(=O)Nc2cnc(-c3ccc(C(C)(C)N)cc3)c(-c3ccccc3)c2)CC1` [Example 55, trans-4-(2-((6-(4-(2-aminopropan-2-yl)phenyl)-5-phenylpyridin-3-yl)amino)-2-oxoethyl)-N,N-dimethylcyclohexanecarboxamide], for which the IC50 in experiment [1] was > 30000 nM; in experiment [2], 3800 nM; in experiment [3], 160 nM; in experiment [4] it was > 30000 nM; in experiment [5], 1600 nM; in experiment [6], 3300 nM.
As to `COC(=O)N(C)[C@H]1CC[C@H](CC(=O)Nc2cc(-c3ccccc3)c(-c3ccc(C(C)(C)N)cc3)nn2)CC1` [Example 56, Methyl (trans-4-(2-((6-(4-(2-aminopropan-2-yl)phenyl)-5-phenylpyridazin-3-yl)amino)-2-oxoethyl)cyclohexyl)(methyl)carbamate], the IC50 is > 30000 nM in experiment [1]; > 30000 nM in experiment [2]; 330 nM in experiment [3]; > 30000 nM in experiment [4]; 100 nM in experiment [5]; 10000 nM in experiment [6].
In the case of `CC(=O)N(C)[C@H]1CC[C@H](CC(=O)Nc2cc(-c3ccccc3)c(-c3ccc([C@]4(N)C[C@](C)(O)C4)cc3)nn2)CC1` [Example 57, N-(6-(4-(trans-1-amino-3-hydroxy-3-methylcyclobutyl)phenyl)-5-phenylpyridazin-3-yl)-2-(trans-4-(N-methylacetamido)cyclohexyl)acetamide], the 50% inhibitory concentration (IC50) in experiment [1] was found to be 5300 nM; in experiment [2], 600 nM; in experiment [3] it was 8 nM; in experiment [4] it was 1600 nM; in experiment [5], 7 nM; in experiment [6] it was 190 nM.
Regarding `C[C@]1(O)C[C@@](N)(c2ccc(-c3nnc(NC(=O)C[C@H]4CC[C@H](N5CCOC5=O)CC4)cc3-c3ccccc3)cc2)C1` [Example 58, N-(6-(4-(trans-1-amino-3-hydroxy-3-methylcyclobutyl)phenyl)-5-phenylpyridazin-3-yl)-2-(trans-4-(2-oxooxazolidin-3-yl)cyclohexyl)acetamide], the 50% inhibitory concentration (IC50) in experiment [1] was 4000 nM; in experiment [2] it was 750 nM; in experiment [3] it was 8 nM; in experiment [4] it was 1300 nM; in experiment [5] it was 3 nM; in experiment [6] it was 98 nM.
`COC(=O)N(C)[C@H]1CC[C@H](CC(=O)Nc2cc(-c3ccccc3)c(-c3ccc([C@]4(N)C[C@](C)(O)C4)cc3)nn2)CC1` [Example 59, Methyl (trans-4-(2-((6-(4-(trans-1-amino-3-hydroxy-3-methylcyclobutyl)phenyl)-5-phenylpyridazin-3-yl)amino)-2-oxoethyl)cyclohexyl)(methyl)carbamate]: the IC50 in experiment [1] was found to be 1600 nM; in experiment [2] it was 380 nM; in experiment [3], 24 nM; in experiment [4] it was 1400 nM; in experiment [5] it was 4 nM; in experiment [6] it was 50 nM.
Regarding `COC(=O)N(C)[C@H]1CC[C@H](CC(=O)Nc2cc(-c3ccccc3)c(-c3ccc(C4(N)CC(F)(F)C4)cc3)nn2)CC1` [Example 60, Methyl (trans-4-(2-((6-(4-(1-amino-3,3-difluorocyclobutyl)phenyl)-5-phenylpyridazin-3-yl)amino)-2-oxoethyl)cyclohexyl)(methyl)carbamate], the concentration for half-maximal inhibition (IC50) is > 30000 nM in experiment [1]; 8800 nM in experiment [2]; 290 nM in experiment [3]; > 30000 nM in experiment [4]; 50 nM in experiment [5]; 710 nM in experiment [6].
For the molecule `NC1(c2ccc(-c3nnc(NC(=O)C[C@H]4CC[C@H](N5CCOC5=O)CC4)cc3-c3ccccc3)cc2)CC(F)(F)C1` [Example 61, N-(6-(4-(1-amino-3,3-difluorocyclobutyl)phenyl)-5-phenylpyridazin-3-yl)-2-(trans-4-(2-oxooxazolidin-3-yl)cyclohexyl)acetamide], the concentration for half-maximal inhibition (IC50) in experiment [1] was > 30000 nM; in experiment [2], > 10500 nM; in experiment [3], 66 nM; in experiment [4], > 22800 nM; in experiment [5], 17 nM; in experiment [6], 200 nM.
